In patent US9777002B2, “Inhibitors of the renal outer medullary potassium channel” (Merck Sharp & Dohme Corp., priority 2012, dated 2017) one finds IC50 data, which are given here for 4 compounds.

Assay [1] has as its target T1, hROMK (hKir1.1) (Homo sapiens, UniProt P48048).
T1 construct: expressed in transfected cells
T1 sequence (P48048 1-391): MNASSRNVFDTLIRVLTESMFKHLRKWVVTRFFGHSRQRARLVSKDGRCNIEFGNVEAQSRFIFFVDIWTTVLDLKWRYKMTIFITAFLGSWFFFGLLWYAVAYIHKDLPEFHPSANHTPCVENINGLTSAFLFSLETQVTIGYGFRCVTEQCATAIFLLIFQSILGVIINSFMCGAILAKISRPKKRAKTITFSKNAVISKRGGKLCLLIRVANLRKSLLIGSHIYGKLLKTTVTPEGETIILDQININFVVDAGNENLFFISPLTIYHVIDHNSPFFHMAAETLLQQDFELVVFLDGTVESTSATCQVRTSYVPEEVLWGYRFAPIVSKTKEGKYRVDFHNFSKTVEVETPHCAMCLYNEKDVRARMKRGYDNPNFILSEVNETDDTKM
As to the kind of experiment: Thallium Flux Assay. The assay is classed as cell-based. The note with it: HEK293 cells stably expressing hROMK (hKir1.1). The essentials:
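HEK293 cells stably expressing hROMK were loaded with FluxOR dye for 90 min, then incubated with compound in probenecid assay buffer plus 0.3 mM ouabain, pH 7.4, for 30 min at 23-25 °C. Flux was triggered with 3 mM thallium/0.3 mM potassium (final) and read on FLIPR-Tetra for ~10 min. IC50 was calculated against the signal blocked by 3 μM control inhibitor.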

Assay [2] deals with T2, Kir1.1 (ROMK1) (Homo sapiens, UniProt P48048).
T2 construct: expressed in transfected cells; expression induced with sodium butyrate
T2 sequence (P48048 1-391): T1 sequence (P48048 1-391)
As to the kind of experiment: Electrophysiology Assay (whole cell voltage clamp, IonWorks Quattro). The assay is classed as cell-based. The settings on record: Chinese hamster ovary cells stably expressing Kir1.1; block during voltage step to 0 mV. The procedure: Block of Kir1.1 (ROMK1) currents was examined by whole cell voltage clamp (Hamill et. al. Pfluegers Archives 391:85-100 (1981)) using the IonWorks Quattro automated electrophysiology platform (Molecular Devices, Sunnyvale, Calif.). Chinese hamster ovary cells stably expressing Kir1.1 channels were maintained in T-75 flasks in cell culture media in a humidified 10% CO2 incubator at 37° C. Prior to an experiment, Kir1.1 expression was induced by overnight incubation with 1 mM sodium butyrate. On the day of the experiment, cells were dissociated with 2.5 mL of Versene (Invitrogen 15040-066) for approximately 6 min at 37° C. and suspended in 10 mL of bath solution containing (in mM): 150 NaCl, 10 KCl, 2.7 CaCl2, 0.5 MgCl2, 5 HEPES, pH 7.4. After centrifugation, the cell pellet was resuspended in approximately 4.0 mL of bath solution and placed in the IonWorks instrument. The intracellular solution consisted of (in mM): 80 K gluconate, 40 KCl, 20 KF, 3.2 MgCl2, 3 EGTA, 5 Hepes, pH 7.4. Electrical access to the cytoplasm was achieved by perforation in 0.13 mg/mL amphotericin B for 4 min. Amphotericin B (Sigma A-4888) was prepared as a 40 mg/mL solution in DMSO. Voltage protocols and current recordings were performed using the IonWorks HT software/hardware system. Currents were sampled at 1 kHz. No correction for liquid junction potentials was used. The test pulse, consisting of a 100 ms step to 0 mV from a holding potential of −70 mV, followed by a 100 ms voltage ramp from −70 mV to +70 mV, was applied before and after a 6 min compound incubation period. Test compounds were prepared by diluting DMSO stock solutions into the bath solution at 3× the final concentration and placed in the instrument in 96-well polypropylene plates. Current amplitudes were measured using the IonWorks software. To assess compound potency, the fractional block during the voltage step to 0 mV was calculated in Microsoft Excel (Microsoft, Redmond, Calif.), and dose-response curves were fitted with Igor Pro 4.0 (WaveMetrics, Lake Oswego, Oreg.). Normally, a control compound is included to support that the assay is giving consistent results compared to previous measurements, although the control is not required to obtain the results for the test compounds.

Broadly, the IC50 is the concentration that gives 50% inhibition. A low value points to greater potency. Regarding `Cc1c(CCN2CCC(NC(=O)c3ccc4c(c3)COC4=O)CC2)ccc2c1COC2=O` [Example 1, N-(1-(2-(4-Methyl-1-oxo-1,3-dihydroisobenzofuran-5-yl)ethyl)piperidin-4-yl)-1-oxo-1,3-dihydroisobenzofuran-5-carboxamide], the IC50 worked out at 10 nM in assay [1] and 40 nM in assay [2].

Consider `Cc1c(CCN2CCC(NC(=O)c3ccc(F)c(C#N)c3)CC2)ccc2c1COC2=O` [Example 12, 3-Cyano-4-fluoro-N-(1-(2-(4-methyl-1-oxo-1,3-dihydroisobenzofuran-5-yl)ethyl)piperidin-4-yl)benzamide], for which the IC50 in assay [1] was determined as 1000 nM; in assay [2], 120 nM.

As to `Cc1c(CCN2CCC(NC(=O)c3ccc(C#N)cc3S(C)(=O)=O)CC2)ccc2c1COC2=O` [Example 29, 4-Cyano-N-(1-(2-(4-methyl-1-oxo-1,3-dihydroisobenzofuran-5-yl)ethyl)piperidin-4-yl)-2-(methylsulfonyl)benzamide], the IC50 in assay [1] turned out to be 1230 nM; in assay [2], 240 nM.

Take `Cc1c([C@@H](O)CN2CCC(C)(NC(=O)c3ccc(C#N)cn3)CC2)ccc2c1COC2=O` [Example 40, (R)-5-Cyano-N-(1-(2-hydroxy-2-(4-methyl-1-oxo-1,3-dihydroisobenzofuran-5-yl)ethyl)-4-methylpiperidin-4-yl)picolinamide]: the IC50 was 1320 nM in assay [1] and 630 nM in assay [2].
